Values quoted from earlier work in US11510895B2, “Compositions and formulations including cabazitaxel and human serum albumin” (Zhuhai Beihai Biotech Co., Ltd., priority 2016, dated 2022).

Key:
human serum proteins = details: in vitro
human serum albumin = human serum albumin (Homo sapiens, UniProt P02768); details: in vitro
Chain of human serum albumin (P02768 25-609): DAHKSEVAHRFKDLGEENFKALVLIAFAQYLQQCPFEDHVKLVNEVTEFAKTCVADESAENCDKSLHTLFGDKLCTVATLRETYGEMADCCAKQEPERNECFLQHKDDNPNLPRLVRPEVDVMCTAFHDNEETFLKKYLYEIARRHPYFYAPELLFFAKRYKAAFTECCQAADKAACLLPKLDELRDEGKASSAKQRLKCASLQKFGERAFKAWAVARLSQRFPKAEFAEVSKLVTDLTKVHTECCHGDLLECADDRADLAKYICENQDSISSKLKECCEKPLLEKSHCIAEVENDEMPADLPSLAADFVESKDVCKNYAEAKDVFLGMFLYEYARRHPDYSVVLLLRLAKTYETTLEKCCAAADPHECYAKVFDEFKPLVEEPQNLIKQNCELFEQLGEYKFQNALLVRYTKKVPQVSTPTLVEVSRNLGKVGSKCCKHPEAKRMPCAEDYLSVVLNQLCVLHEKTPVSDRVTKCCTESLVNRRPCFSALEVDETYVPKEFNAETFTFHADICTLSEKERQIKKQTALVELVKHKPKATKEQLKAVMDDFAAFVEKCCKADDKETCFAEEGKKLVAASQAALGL

Question: Which “saturability of the binding to human serum proteins” value (human serum proteins) does the source give for CO[C@H]1C(=O)[C@]2(C)[C@@H](OC)C[C@H]3OC[C@@]3(OC(C)=O)[C@H]2[C@H](OC(=O)c2ccccc2)[C@]2(O)C[C@H](OC(=O)[C@H](O)[C@@H](NC(=O)OC(C)(C)C)c3ccccc3)C(C)=C1C2(C)C [cabazitaxel] here?
Answer: not saturable up to 50,000

Question: And the “bound to human serum albumin” value (human serum albumin)?
Answer: 82%

Question: What about the solubility in alcohol of the same compound?
Answer: soluble

Question: What about the solubility in water of the same compound?
Answer: practically insoluble
